Columns and labels:
[1] = target: T1, human H-Ras polypeptide (amino acid residues 1 to 166) binding to human c-Raf-1 (amino acid residues 51 to 130) (Homo sapiens, UniProt P01112); experiment: Biochemical activity verification test: inhibition of Ras-Raf binding (GST-Raf pull-down of GTPγ[35S]-labeled Ras, scintillation counting); conditions: compound at various concentrations in 10% DMSO; FIG. 4
T1 construct: a human H-Ras polypeptide (amino acid residues 1 to 166) was used as Ras; GST (N, cleaved yes); made in house; host or cells: Escherichia coli
T1 sequence (P01112 1-166): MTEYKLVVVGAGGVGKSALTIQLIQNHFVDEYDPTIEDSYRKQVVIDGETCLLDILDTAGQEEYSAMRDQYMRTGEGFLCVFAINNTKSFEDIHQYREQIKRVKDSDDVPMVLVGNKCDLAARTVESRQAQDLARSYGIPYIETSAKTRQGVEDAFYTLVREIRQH
Excerpt: In this experimental example, a human H-Ras polypeptide (amino acid residues 1 to 166) was used as Ras, and a GTP analog (GTPγS (Roche Diagnostics)) was used as GTP. Further, human c-Raf-1 (amino acid residues 51 to 130) was used as Raf, a target protein of Ras.
A fused protein of Raf, a target protein of Ras, and glutathione S-transferase (GST) was expressed in Escherichia coli using a vector for GST-fused protein expression (pGEX-6P-1 vector (GE Healthcare)). The expressed GST-Raf-fused protein was immobilized onto an affinity carrier for purification (glutathione Sepharose 4B: resin (GE Healthcare)).
GTPγ[^35S] (Perkin Elmer), one of the GTP analogs, was added to Ras from which a GST tag was cleaved with a protease for GST-fused protein cleavage (PreScission protease (GE Healthcare)) to produce radiolabeled Ras.
The resin in the reaction liquid was washed, and then a complex of the GST-Raf-fused protein and the radiolabeled Ras was eluted by adding glutathione. A radioactivity of the eluate was subjected to scintillation counting, to thereby measure a binding activity of Ras to Raf, and inhibitory activities on Ras-Raf binding with various compounds were evaluated.

[2] = tested on: culture cell lines having a mutation in an active form of any one of H-Ras, N-Ras, and K-Ras; experiment: Cytological activity verification test: anchorage-independent cell growth (soft agar colony formation); format: cell-based; conditions: 0.6% agarose, 37° C., 2 weeks, colonies with diameter of 50 μm or more, relative to compound-free control (100%); FIG. 5
Experimental: The number of appeared colonies each having a size with a diameter of 50 μm or more was measured. For a medium in which each of the culture cell lines was suspended in a system free of each of the compounds, the number of colonies was similarly measured and used as a control (100%). Each of the compounds was evaluated for its inhibitory activity on colony formation (inhibitory activity on anchorage-independent cell growth) by calculating inhibition ratio for colony formation of the compound administration group relative to the control.

SMILES | inhibitory activity on Ras-Raf binding [1] | inhibitory activity on colony formation (anchorage-independent cell growth) [2]
O=[N+]([O-])c1ccc(NNC(=S)Nc2ccc(F)cc2)c([N+](=O)[O-])c1 [Compound (III)] | found to interact with Ras | found to have a colony formation inhibition effect on each cell
O=[N+]([O-])c1cc(C(F)(F)F)cc([N+](=O)[O-])c1NNC(=S)Nc1ccc(F)cc1 [Compound (IV)] | found to interact with Ras | found to have a colony formation inhibition effect on each cell
Cc1ccc(NC(=S)NNc2c([N+](=O)[O-])cc(C(F)(F)F)cc2[N+](=O)[O-])cc1Cl [Compound (II)] | found to interact with Ras | found to have a colony formation inhibition effect on each cell
